Patent US20240301474A1, “NUCLEASES FOR SIGNAL AMPLIFICATION” (Amazon Technologies, Inc., priority 2021, published 2024)
“Also recorded” adds a separate entry of the source. {FAM} = 6-carboxyfluorescein (IDT 56-FAM); {IABkFQ} = Iowa Black FQ quencher

Legend:
[1] = tested on: SyCsx1; assay: Reporter preference assay, SyCsx1 activated by cA4; details: 100 nM SyCsx1, 10 μM cA4, FIG. 20
Procedure: (§4) Varying concentrations of nuclease (SyCsx1, PfuCsx1, or TtCsm6) in reaction buffer (2.1 NEB Buffer-50 mM NaCl, 10 mM Tris-HCl, 10 mM MgCl2, 100 μg/ml BSA) with 1 U/μl murine RNase inhibitor (NEB) and 600 nM FAM-Q reporter (IDT) was mixed with varying concentrations of cA3, cA4, cA6, rA3>P or rA4>P (Biolog or IDT). Negative control was water free of activator. Measurements were taken at 37° C. every 1 min in a Tecan Infinite 200 PRO plate reader (λex, 485 nm; λem, 535 nm).
(§5) The objective of these experiments was to determine the preferred reporters for SyCsx1, PfuCsx1, and TtCsm6 incubated with cyclic activator cA4.

[2] = tested on: PfuCsx1; assay: Reporter preference assay, PfuCsx1 activated by cA4; details: 100 nM PfuCsx1, 10 μM cA4, FIG. 21
Sequence of PfuCsx1 (as listed by the source): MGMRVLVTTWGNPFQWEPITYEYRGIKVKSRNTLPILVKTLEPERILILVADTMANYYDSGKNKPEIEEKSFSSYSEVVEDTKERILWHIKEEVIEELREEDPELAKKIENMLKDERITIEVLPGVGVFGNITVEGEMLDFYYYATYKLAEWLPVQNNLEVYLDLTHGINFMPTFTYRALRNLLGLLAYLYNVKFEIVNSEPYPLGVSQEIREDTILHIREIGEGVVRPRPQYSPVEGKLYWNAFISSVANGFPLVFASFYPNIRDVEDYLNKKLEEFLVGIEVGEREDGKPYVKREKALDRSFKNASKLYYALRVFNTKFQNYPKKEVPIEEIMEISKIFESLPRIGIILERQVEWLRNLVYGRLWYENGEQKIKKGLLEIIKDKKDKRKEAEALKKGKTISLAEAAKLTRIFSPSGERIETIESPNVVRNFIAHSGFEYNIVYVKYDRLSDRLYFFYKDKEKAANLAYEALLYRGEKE
Procedure: as §4, §5

[3] = molecular target: T1, TtCsm6 (Thermus thermophilus, UniProt Q53W17, G18R); details: 100 nM TtCsm6, 10 μM cA4, FIG. 22
T1 sequence (Q53W17 whole entry G18R): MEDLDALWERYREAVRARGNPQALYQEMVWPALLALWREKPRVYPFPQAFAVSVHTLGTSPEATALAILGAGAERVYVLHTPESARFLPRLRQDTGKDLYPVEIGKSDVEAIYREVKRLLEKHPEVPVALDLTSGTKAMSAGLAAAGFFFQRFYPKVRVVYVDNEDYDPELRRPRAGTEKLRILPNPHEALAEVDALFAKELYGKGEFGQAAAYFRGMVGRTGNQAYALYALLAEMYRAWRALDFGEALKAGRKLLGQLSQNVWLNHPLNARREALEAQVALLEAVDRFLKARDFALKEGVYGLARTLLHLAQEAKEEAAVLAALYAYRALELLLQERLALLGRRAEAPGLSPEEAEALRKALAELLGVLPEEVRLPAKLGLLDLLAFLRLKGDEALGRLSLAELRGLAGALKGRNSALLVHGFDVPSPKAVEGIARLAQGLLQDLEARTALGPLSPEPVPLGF
Procedure: as §4, §5

[4] = tested on: SyCsx1; assay: Activation of SyCsx1 by linear and cyclic activators (FAM-Q fluorescence); details: 100 nM SyCsx1, FAM-Q polyC ssRNA reporter; for activation of SyCsx1 (fluorescence time course): 37° C., FIG. 14A/14B; for rapidity of SyCsx1 activation (time until maximum fluorescence): FIG. 14B
Procedure: (§6) The objective of these experiments was to assess activation of SyCsx1, PfuCsx1, and TtCsm6 by incubating the nucleases with cyclic or linear activators.
as §4

[5] = tested on: PfuCsx1; assay: Activation of PfuCsx1 by linear and cyclic activators (FAM-Q fluorescence); details: 100 nM PfuCsx1, FAM-Q polyA ssRNA reporter, FIG. 15
Procedure: as §6, §4

[6] = molecular target: T1, TtCsm6; assay: Activation of TtCsm6 by linear and cyclic activators (fluorescence); details: 100 nM TtCsm6, RNAse Alert (IDT) reporter, FIG. 16
Procedure: as §6, §4

[7] = molecular target: NucC enzyme (Escherichia coli, UniProt D7Y2H5); assay: NucC activation by cyclic and linear activator with dsM13 plasmid; format: biochemical; details: 10 nM NucC, 10 nM activator, 37° C., 4 hours
Procedure: The objective of this experiment was to achieve activation of the NucC enzyme by incubating this enzyme with its cyclic (c-triAMP) and linear (triAMP)>P activator and the dsM13 plasmid.
The conditions that were tested are outlined in Table 14 below.
A NucC Mix (dsM13) was prepared as outlined in Table 15 below.
The mixture described in Table 15 was divided into two PCT tubes. The mixture was then incubated at 37° C. for 4 hours. Next, the samples were run on a 1.5% agarose gel.

[8] = molecular target: T1, TtCsm6; assay: Limit of detection (LoD) assay, TtCsm6 activated by rA4>P; details: 100 nM TtCsm6, FAM-Q polyC reporter; 0.01, 0.1, 1, 10 μM tested; FIG. 19
Procedure: as §4

[9] = tested on: PfuCsx1; assay: Limit of detection (LoD) assay, PfuCsx1 activated by rA4>P; details: 100 nM PfuCsx1, FAM-Q polyA reporter; 0.01, 0.1, 1, 10 μM tested; FIG. 18
Procedure: as §4

[10] = tested on: SyCsx1; assay: Limit of detection (LoD) assay, SyCsx1 activated by rA4>P; details: 10 nM SyCsx1, FAM-Q polyC reporter; 0.1, 1, 10 nM tested; FIG. 17
Procedure: as §4

[11] = tested on: ssM13 (M13mp18 single-stranded plasmid); assay: NucC activity assay with M13 plasmid (single-stranded); format: biochemical; details: 10 nM NucC, 10 nM c(triAMP), 37° C., 2:30 hours, 1% agarose gel
Procedure: (§1) The objective of this experiment was to determine whether the NucC enzyme cleaves both double-stranded DNA and single-stranded DNA by incubating the enzyme with its cyclic activator (c-triAMP) and the dsM13 or ssM13 plasmid.
(§2) The conditions that were tested are outlined in Table 11 below.
A second NucC Mix (ssM13) was prepared as outlined in Table 13 below.
(§3) Each mixture described in Table 12 and Table 13 was divided into two PCT tubes. The mixture was then incubated at 37° C. for 2:30 hours. Next, the samples were run on a 1% agarose gel.

[12] = tested on: dsM13 (M13mp18 RF I plasmid); assay: NucC activity assay with M13 plasmid (double-stranded); format: biochemical; details: 10 nM NucC, 10 nM c(triAMP), 37° C., 2:30 hours, 1% agarose gel
Procedure: as §1, §2
A first NucC Mix (dsM13) was prepared as outlined in Table 12 below.
as §3

Sequence of SyCsx1 (as listed by the source): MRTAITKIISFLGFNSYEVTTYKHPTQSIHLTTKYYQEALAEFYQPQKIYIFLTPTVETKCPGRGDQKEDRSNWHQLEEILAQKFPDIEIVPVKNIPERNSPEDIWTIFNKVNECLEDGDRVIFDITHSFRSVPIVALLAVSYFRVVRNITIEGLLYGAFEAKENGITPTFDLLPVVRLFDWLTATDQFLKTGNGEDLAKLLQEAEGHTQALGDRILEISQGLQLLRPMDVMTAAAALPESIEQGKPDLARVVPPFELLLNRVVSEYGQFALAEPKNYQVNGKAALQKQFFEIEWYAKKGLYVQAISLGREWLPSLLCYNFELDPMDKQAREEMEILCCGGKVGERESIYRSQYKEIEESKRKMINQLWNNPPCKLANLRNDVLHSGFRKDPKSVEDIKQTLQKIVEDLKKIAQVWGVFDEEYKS

Molecule: 5′-/56 FAM/rArUrGrUrCrCrCrCrUrGrArA/3IABKFQ/-3′ (AUGUCCCCUGAA; RNA, 5' {FAM}, 3' {IABkFQ}, backbone not given here) [FAM-Q UCU]
- reporter preference upon cleavage by SyCsx1 [1]: best reporters
- reporter preference upon cleavage by PfuCsx1 [2]: best reporters
- reporter preference upon cleavage by TtCsm6 [3]: best reporters

Molecule: cyclic hexaAMP [cA6]
- activation of SyCsx1 (fluorescence time course) [4]: activated

Molecule: cyclic tetraAMP [cA4]
- activation of SyCsx1 (fluorescence time course) [4]: activated
- rapidity of SyCsx1 activation (time until maximum fluorescence) [4]: most rapid activations
- activation of PfuCsx1 (fluorescence time course) [5]: activated
- activation of TtCsm6 (fluorescence time course) [6]: activated

Molecule: cyclic triAMP [c-triAMP]
- degradation of the dsM13 plasmid by NucC in the presence of activator ([7]; FIG. 13): complete degradation
- activation of the NucC enzyme ([7]; dsM13 plasmid, 1.5% agarose gel): achieved; also recorded: activated

Molecule: linear tetraAMP>P [rA4>P]
- activator concentration that activates TtCsm6 (detection limit) [8]: ≥ 1 µM
- activator concentration that activates PfuCsx1 (detection limit) [9]: ≥ 1 µM
- activation of SyCsx1 (fluorescence time course) [4]: activated
- rapidity of SyCsx1 activation (time until maximum fluorescence) [4]: most rapid activations
- activator concentration that activates SyCsx1 (detection limit) [10]: 0.1 nM
- activation of PfuCsx1 (fluorescence time course) [5]: activated
- activation of TtCsm6 (fluorescence time course) [6]: activated

Molecule: linear triAMP>P [rA3>P]
- activation of SyCsx1 (fluorescence time course) [4]: activated

B1: NucC: nuclease; amino acid sequence SEQ ID NO: 2 (NucC wild sequence) (protein, listed as Escherichia coli)
chain: MSDWSLSQLFASLHEDIQLRLGTARKAFQHPGAKGDASEGVWIEMLDTYLPKRYQAANAFVVDSLGNFSDQIDVVVFDRQYSPFIFKFNEQIIVPAESVYAVFEAKQSASADLVAYAQRKVASVRRLHRTSLPIPHAGGTYPAKPLIPILGGLLTFESDWSPALGMSFDKALNGDLSDGRLDMGCVASHGHFYFNNIDSKFNFEHGNKPATAFLFRLIAQLQFSGTVPMIDIDAYGKWLAN
- cleavage of single-stranded nucleic acid [11]: not
- cleavage of double-stranded DNA [12]: cleaved
